Test results from PubChem BioAssay AID2060509 (Molecular Pharmacology Branch, DTP, NCI, 2025).

Test system: 485176-168-R4-J1-PDC spheroids with HUVEC/MSC, viability
Test: Anticancer human tumor 485176-168-R4-J1-PDC patient-derived pancreatic adenocarcinoma cell line growth inhibition [GQUAD]
Settings: for IC50: curve of first compound; for viability, T/C: stronger effect = lower value
Method in brief: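 Tumor cells were grown as complex spheroids with HUVEC endothelial cells and mesenchymal stem cells as stroma. G-quadruplex stabilizers were combined with targeted agents over half-log dilutions from near the clinical Cmax, or from 10 microM.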

[1] = second compound 0.0316 µM, first compound 0.000999 µM
[2] = second compound 0.0316 µM, first compound 0.00316 µM
[3] = second compound 0.0316 µM, first compound 0.00999 µM
[4] = second compound 0.0316 µM, first compound 0.0316 µM
[5] = second compound 0.0316 µM, first compound 0.0999 µM
[6] = second compound 0.0316 µM, first compound 0.316 µM
[7] = second compound 0.1 µM, first compound 0.000999 µM
[8] = second compound 0.1 µM, first compound 0.00316 µM
[9] = second compound 0.1 µM, first compound 0.00999 µM
[10] = second compound 0.1 µM, first compound 0.0316 µM
[11] = second compound 0.1 µM, first compound 0.0999 µM
[12] = second compound 0.1 µM, first compound 0.316 µM
[13] = second compound 0.316 µM, first compound 0.000999 µM
[14] = second compound 0.316 µM, first compound 0.00316 µM
[15] = second compound 0.316 µM, first compound 0.00999 µM
[16] = second compound 0.316 µM, first compound 0.0316 µM
[17] = second compound 0.316 µM, first compound 0.0999 µM
[18] = second compound 0.316 µM, first compound 0.316 µM
[19] = second compound 1 µM, first compound 0.000999 µM
[20] = second compound 1 µM, first compound 0.00316 µM
[21] = second compound 1 µM, first compound 0.00999 µM
[22] = second compound 1 µM, first compound 0.0316 µM
[23] = second compound 1 µM, first compound 0.0999 µM
[24] = second compound 1 µM, first compound 0.316 µM
[25] = second compound 3.16 µM, first compound 0.000999 µM
[26] = second compound 3.16 µM, first compound 0.00316 µM
[27] = second compound 3.16 µM, first compound 0.00999 µM
[28] = second compound 3.16 µM, first compound 0.0316 µM
[29] = second compound 3.16 µM, first compound 0.0999 µM
[30] = second compound 3.16 µM, first compound 0.316 µM
[31] = second compound 10 µM, first compound 0.000999 µM
[32] = second compound 10 µM, first compound 0.00316 µM
[33] = second compound 10 µM, first compound 0.00999 µM
[34] = second compound 10 µM, first compound 0.0316 µM
[35] = second compound 10 µM, first compound 0.0999 µM
[36] = second compound 10 µM, first compound 0.316 µM
[37] = second compound 0.0316 µM, first compound 0.1 µM
[38] = second compound 0.0316 µM, first compound 1 µM
[39] = second compound 0.0316 µM, first compound 3.16 µM
[40] = second compound 0.0316 µM, first compound 10 µM
[41] = second compound 0.1 µM, first compound 0.1 µM
[42] = second compound 0.1 µM, first compound 1 µM
[43] = second compound 0.1 µM, first compound 3.16 µM
[44] = second compound 0.1 µM, first compound 10 µM
[45] = second compound 0.316 µM, first compound 0.1 µM
[46] = second compound 0.316 µM, first compound 1 µM
[47] = second compound 0.316 µM, first compound 3.16 µM
[48] = second compound 0.316 µM, first compound 10 µM
[49] = second compound 1 µM, first compound 0.1 µM
[50] = second compound 1 µM, first compound 1 µM
[51] = second compound 1 µM, first compound 3.16 µM
[52] = second compound 1 µM, first compound 10 µM
[53] = second compound 3.16 µM, first compound 0.1 µM
[54] = second compound 3.16 µM, first compound 1 µM
[55] = second compound 3.16 µM, first compound 3.16 µM
[56] = second compound 3.16 µM, first compound 10 µM
[57] = second compound 10 µM, first compound 0.1 µM
[58] = second compound 10 µM, first compound 1 µM
[59] = second compound 10 µM, first compound 3.16 µM
[60] = second compound 10 µM, first compound 10 µM
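Also: spheroids exposed to compounds for seven days before readout.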
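For viability, T/C in this document: percent viability relative to DMSO vehicle control wells as 100%.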

`CCc1c2c(nc3ccc(O)cc13)-c1cc3c(c(=O)n1C2)COC(=O)[C@]3(O)CC` + Cc1cnc(CNC(=O)c2c(=O)c3ccc(N4CCCN(C)CC4)nc3n3c2sc2ccccc23)cn1 was tested, and the IC50 (second compound 0.0316 µM) was 3.5 nM, the IC50 (second compound 0.1 µM) was 1.5 nM and the IC50 (second compound 0.316 µM) was 1.67 nM. It also gave an IC50 (second compound 1 µM) of less than 0.999 nM, an IC50 (second compound 3.16 µM) of less than 0.999 nM and an IC50 (second compound 10 µM) of less than 0.999 nM. For the same compound, the viability, T/C [1] was 79.5%, the viability, T/C [2] was 47.6% and the viability, T/C [3] was 36%. The viability, T/C [4] was 19.6%, the viability, T/C [5] was 12.6% and the viability, T/C [6] was 4.96%. The viability, T/C [7] was 54.7%, the viability, T/C [8] was 42.7% and the viability, T/C [9] was 26.6%. The viability, T/C [10] was 21.9%, the viability, T/C [11] was 11.4% and the viability, T/C [12] was 4.78%. For the same compound, the viability, T/C [13] was 53%, the viability, T/C [14] was 47% and the viability, T/C [15] was 30.9%. For the same compound, the viability, T/C [16] was 19.5%, the viability, T/C [17] was 10.7% and the viability, T/C [18] was 5.12%. It also gave a viability, T/C [19] of 40.2%, a viability, T/C [20] of 38.9% and a viability, T/C [21] of 33.2%. It also gave a viability, T/C [22] of 20%, a viability, T/C [23] of 11.9% and a viability, T/C [24] of 5.51%. It also gave a viability, T/C [25] of 42.6%, a viability, T/C [26] of 35% and a viability, T/C [27] of 27.3%. It also gave a viability, T/C [28] of 22.1%, a viability, T/C [29] of 11.1% and a viability, T/C [30] of 6.82%. The viability, T/C [31] was 33.8%, the viability, T/C [32] was 29.4% and the viability, T/C [33] was 25.1%. For the same compound, the viability, T/C [34] was 19.9%, the viability, T/C [35] was 5.56% and the viability, T/C [36] was 0.25%.
With `CC1COCCN1c1cc(C2(O)CC3CCC(C2)O3)c2cnn(-c3ccn[nH]3)c2n1` (stereo not drawn) + Cc1cnc(CNC(=O)c2c(=O)c3ccc(N4CCCN(C)CC4)nc3n3c2sc2ccccc23)cn1 the IC50 (second compound 0.0316 µM) was less than 31.6 nM, the IC50 (second compound 0.1 µM) was less than 31.6 nM and the IC50 (second compound 0.316 µM) was less than 31.6 nM. It also gave an IC50 (second compound 1 µM) of less than 31.6 nM, an IC50 (second compound 3.16 µM) of less than 31.6 nM and an IC50 (second compound 10 µM) of less than 31.6 nM. It also gave a viability, T/C [4] of 48.9%, a viability, T/C [37] of 17.3% and a viability, T/C [6] of 11%. For the same compound, the viability, T/C [38] was 8.41%, the viability, T/C [39] was 10.1% and the viability, T/C [40] was 8.06%. For the same compound, the viability, T/C [10] was 22.6%, the viability, T/C [41] was 14.5% and the viability, T/C [12] was 9.1%. The viability, T/C [42] was 9.8%, the viability, T/C [43] was 11.5% and the viability, T/C [44] was 8.77%. The viability, T/C [16] was 15.5%, the viability, T/C [45] was 11.7% and the viability, T/C [18] was 10.3%. For the same compound, the viability, T/C [46] was 9.55%, the viability, T/C [47] was 10.9% and the viability, T/C [48] was 9.41%. For the same compound, the viability, T/C [22] was 13.8%, the viability, T/C [49] was 12.3% and the viability, T/C [24] was 9.3%. For the same compound, the viability, T/C [50] was 7.89%, the viability, T/C [51] was 9.58% and the viability, T/C [52] was 7.69%. For the same compound, the viability, T/C [28] was 17.7%, the viability, T/C [53] was 11.3% and the viability, T/C [30] was 10.5%. The viability, T/C [54] was 9.3%, the viability, T/C [55] was 8.86% and the viability, T/C [56] was 8.53%. It also gave a viability, T/C [34] of 13.8%, a viability, T/C [57] of 11.2% and a viability, T/C [36] of 10.2%. The viability, T/C [58] was 9.98%, the viability, T/C [59] was 9.05% and the viability, T/C [60] was 7.21%.
`Cc1[nH]c2ccccc2c1CCNCc1ccc(/C=C/C(=O)NO)cc1` + Cc1[nH]c2ccc(F)cc2c1-c1nc2c3cccnc3c3ncccc3c2[nH]1 showed an IC50 (second compound 0.0316 µM) of 158 nM, an IC50 (second compound 0.1 µM) of 163 nM and an IC50 (second compound 0.316 µM) of 170 nM. The IC50 (second compound 1 µM) was 164 nM, the IC50 (second compound 3.16 µM) was 129 nM and the IC50 (second compound 10 µM) was 150 nM. It also gave a viability, T/C [1] of 99.1%, a viability, T/C [2] of 106% and a viability, T/C [3] of 96.3%. For the same compound, the viability, T/C [4] was 97%, the viability, T/C [5] was 77.1% and the viability, T/C [6] was 9.63%. For the same compound, the viability, T/C [7] was 105%, the viability, T/C [8] was 104% and the viability, T/C [9] was 89.5%. It also gave a viability, T/C [10] of 89%, a viability, T/C [11] of 78.7% and a viability, T/C [12] of 15.7%. It also gave a viability, T/C [13] of 103%, a viability, T/C [14] of 89.9% and a viability, T/C [15] of 80%. It also gave a viability, T/C [16] of 82.4%, a viability, T/C [17] of 81.3% and a viability, T/C [18] of 15.3%. It also gave a viability, T/C [19] of 82.4%, a viability, T/C [20] of 89.7% and a viability, T/C [21] of 95%. It also gave a viability, T/C [22] of 89.3%, a viability, T/C [23] of 72.8% and a viability, T/C [24] of 19.7%. It also gave a viability, T/C [25] of 79.5%, a viability, T/C [26] of 93% and a viability, T/C [27] of 80%. The viability, T/C [28] was 74.3%, the viability, T/C [29] was 61% and the viability, T/C [30] was 15.5%. For the same compound, the viability, T/C [31] was 85.8%, the viability, T/C [32] was 93.7% and the viability, T/C [33] was 88.6%. It also gave a viability, T/C [34] of 68.4%, a viability, T/C [35] of 73.2% and a viability, T/C [36] of 18.8%.
`O=C(NO)c1cnc(N2CCN(S(=O)(=O)c3ccc4ccccc4c3)CC2)nc1` + Cc1cnc(CNC(=O)c2c(=O)c3ccc(N4CCCN(C)CC4)nc3n3c2sc2ccccc23)cn1 was tested, and the IC50 (second compound 0.0316 µM) was 322 nM, the IC50 (second compound 0.1 µM) was 185 nM and the IC50 (second compound 0.316 µM) was 132 nM. For the same compound, the IC50 (second compound 1 µM) was less than 31.6 nM, the IC50 (second compound 3.16 µM) was less than 31.6 nM and the IC50 (second compound 10 µM) was less than 31.6 nM. For the same compound, the viability, T/C [4] was 81%, the viability, T/C [37] was 62.6% and the viability, T/C [6] was 53.3%. It also gave a viability, T/C [38] of 8.83%, a viability, T/C [39] of 0.53% and a viability, T/C [40] of 0.27%. For the same compound, the viability, T/C [10] was 66.3%, the viability, T/C [41] was 57.2% and the viability, T/C [12] was 42%. The viability, T/C [42] was 8.37%, the viability, T/C [43] was 0.28% and the viability, T/C [44] was 1.03%. For the same compound, the viability, T/C [16] was 59.1%, the viability, T/C [45] was 51.5% and the viability, T/C [18] was 35.7%. The viability, T/C [46] was 2.63%, the viability, T/C [47] was 0.22% and the viability, T/C [48] was 0.44%. The viability, T/C [22] was 39.8%, the viability, T/C [49] was 44.7% and the viability, T/C [24] was 23.2%. For the same compound, the viability, T/C [50] was 0.9%, the viability, T/C [51] was 1.33% and the viability, T/C [52] was 0.81%. The viability, T/C [28] was 45.5%, the viability, T/C [53] was 41.9% and the viability, T/C [30] was 18.6%. The viability, T/C [54] was 0.3%, the viability, T/C [55] was 0.21% and the viability, T/C [56] was 0.18%. For the same compound, the viability, T/C [34] was 36.3%, the viability, T/C [57] was 33.3% and the viability, T/C [36] was 14.1%. The viability, T/C [58] was 0.24%, the viability, T/C [59] was 1.65% and the viability, T/C [60] was 0.46%.
